The target in test [1] is MAP kinase-interacting serine/threonine-protein kinase 1 (Homo sapiens) (UniProt Q9BUB5). In words: Selectivity interaction (Kinase panel (Z-LYTE Assay)) EUB0001632a MKNK1. The following applies: at 10 µM.
Test [2] concerns the target T1, Serine/threonine-protein kinase TBK1 (Homo sapiens) (UniProt Q9UHD2).
T1 sequence (whole entry): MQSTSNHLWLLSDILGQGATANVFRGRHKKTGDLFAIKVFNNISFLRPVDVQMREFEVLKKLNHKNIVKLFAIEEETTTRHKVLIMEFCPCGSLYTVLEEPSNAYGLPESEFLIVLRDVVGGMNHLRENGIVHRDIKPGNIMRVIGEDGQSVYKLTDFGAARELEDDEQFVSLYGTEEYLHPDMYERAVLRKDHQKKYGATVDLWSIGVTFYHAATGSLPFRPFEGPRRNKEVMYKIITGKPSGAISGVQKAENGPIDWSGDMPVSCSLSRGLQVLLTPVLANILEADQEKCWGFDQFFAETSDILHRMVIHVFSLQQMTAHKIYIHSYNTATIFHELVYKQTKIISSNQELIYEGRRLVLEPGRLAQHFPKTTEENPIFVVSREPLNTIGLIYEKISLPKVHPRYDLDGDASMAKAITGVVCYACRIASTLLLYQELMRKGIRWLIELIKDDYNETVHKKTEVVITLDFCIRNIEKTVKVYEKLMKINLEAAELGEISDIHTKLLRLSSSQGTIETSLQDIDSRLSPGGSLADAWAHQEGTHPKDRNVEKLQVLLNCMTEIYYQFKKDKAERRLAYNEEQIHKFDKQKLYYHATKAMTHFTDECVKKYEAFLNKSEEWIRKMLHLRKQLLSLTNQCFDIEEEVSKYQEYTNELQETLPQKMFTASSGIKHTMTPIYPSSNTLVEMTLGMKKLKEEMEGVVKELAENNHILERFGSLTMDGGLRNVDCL
In words: Selectivity interaction (Kinase panel (Z-LYTE Assay)) EUB0001632a TBK1. Particulars: at 10 µM.

Test [3] deals with Mitogen-activated protein kinase kinase kinase kinase 1 (Homo sapiens) (UniProt Q92918). Briefly: Selectivity interaction (KinomeScan (DiscoverX)) EUB0001619a MAP4K1. Particulars: at 1 µM.
Chain of Mitogen-activated protein kinase kinase kinase kinase 1 (Homo sapiens) (Q92918 whole entry, looked up): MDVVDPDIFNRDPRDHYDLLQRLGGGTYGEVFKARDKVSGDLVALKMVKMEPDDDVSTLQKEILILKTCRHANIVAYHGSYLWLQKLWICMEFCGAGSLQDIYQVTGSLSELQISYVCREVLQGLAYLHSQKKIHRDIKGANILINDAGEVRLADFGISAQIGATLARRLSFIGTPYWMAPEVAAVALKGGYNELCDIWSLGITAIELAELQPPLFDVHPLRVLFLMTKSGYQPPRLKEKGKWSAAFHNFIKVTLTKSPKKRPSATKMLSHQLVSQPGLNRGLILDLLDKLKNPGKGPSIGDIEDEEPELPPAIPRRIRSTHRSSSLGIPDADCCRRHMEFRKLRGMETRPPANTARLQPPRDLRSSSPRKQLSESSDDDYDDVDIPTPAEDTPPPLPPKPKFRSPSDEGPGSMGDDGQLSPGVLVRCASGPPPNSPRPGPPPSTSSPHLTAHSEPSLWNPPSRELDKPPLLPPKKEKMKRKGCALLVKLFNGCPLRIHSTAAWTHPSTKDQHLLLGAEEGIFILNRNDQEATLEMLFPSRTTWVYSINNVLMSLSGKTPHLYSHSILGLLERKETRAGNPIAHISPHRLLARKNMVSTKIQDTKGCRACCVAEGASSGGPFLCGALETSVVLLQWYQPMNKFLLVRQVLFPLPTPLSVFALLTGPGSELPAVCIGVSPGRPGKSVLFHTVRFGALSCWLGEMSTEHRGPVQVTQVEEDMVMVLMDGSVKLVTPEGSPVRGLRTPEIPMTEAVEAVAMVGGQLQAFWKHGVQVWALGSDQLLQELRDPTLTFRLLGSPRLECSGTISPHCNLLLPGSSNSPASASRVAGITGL
The target of test [4] is Mitogen-activated protein kinase kinase kinase kinase 5 (Homo sapiens) (UniProt Q9Y4K4). Briefly: Selectivity interaction (ActivX KiNativ screen (ex vivo kinase selectivity in human PBMCs)) EUB0001619a MAP4K5. The test is classed as cell-based. Particulars: PBMC, at 1 µM.
Chain of Mitogen-activated protein kinase kinase kinase kinase 5 (Homo sapiens) (Q9Y4K4 whole entry, looked up): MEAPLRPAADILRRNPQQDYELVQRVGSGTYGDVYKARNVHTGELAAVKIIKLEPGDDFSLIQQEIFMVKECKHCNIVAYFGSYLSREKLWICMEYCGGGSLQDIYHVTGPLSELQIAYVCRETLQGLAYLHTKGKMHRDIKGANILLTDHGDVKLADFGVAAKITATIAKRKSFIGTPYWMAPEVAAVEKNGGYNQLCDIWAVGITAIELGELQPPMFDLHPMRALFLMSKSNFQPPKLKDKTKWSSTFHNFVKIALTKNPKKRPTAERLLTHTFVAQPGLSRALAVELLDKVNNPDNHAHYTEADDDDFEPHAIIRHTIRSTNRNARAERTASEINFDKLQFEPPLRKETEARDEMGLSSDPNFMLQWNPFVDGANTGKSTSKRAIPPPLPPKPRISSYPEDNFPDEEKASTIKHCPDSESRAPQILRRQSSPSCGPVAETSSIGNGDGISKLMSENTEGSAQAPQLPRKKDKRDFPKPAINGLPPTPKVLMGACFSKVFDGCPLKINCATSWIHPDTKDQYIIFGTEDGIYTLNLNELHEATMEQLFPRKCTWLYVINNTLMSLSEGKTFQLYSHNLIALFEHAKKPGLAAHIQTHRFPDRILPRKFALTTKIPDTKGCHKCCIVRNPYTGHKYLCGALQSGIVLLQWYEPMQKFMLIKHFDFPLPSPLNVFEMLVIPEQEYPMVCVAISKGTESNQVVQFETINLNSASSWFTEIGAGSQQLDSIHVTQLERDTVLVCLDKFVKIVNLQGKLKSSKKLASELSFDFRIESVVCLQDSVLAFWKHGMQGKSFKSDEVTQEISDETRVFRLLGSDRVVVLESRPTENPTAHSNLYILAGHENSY
Test [5] has as its target Ribosomal protein S6 kinase alpha-1 (Homo sapiens, UniProt Q15418). Briefly: Selectivity interaction (KinomeScan (DiscoverX)) EUB0000695a RPS6KA1. Particulars: at 100 nM.
Test [6] addresses T2, NUAK family SNF1-like kinase 2 (Homo sapiens) (UniProt Q9H093).
T2 sequence (whole entry): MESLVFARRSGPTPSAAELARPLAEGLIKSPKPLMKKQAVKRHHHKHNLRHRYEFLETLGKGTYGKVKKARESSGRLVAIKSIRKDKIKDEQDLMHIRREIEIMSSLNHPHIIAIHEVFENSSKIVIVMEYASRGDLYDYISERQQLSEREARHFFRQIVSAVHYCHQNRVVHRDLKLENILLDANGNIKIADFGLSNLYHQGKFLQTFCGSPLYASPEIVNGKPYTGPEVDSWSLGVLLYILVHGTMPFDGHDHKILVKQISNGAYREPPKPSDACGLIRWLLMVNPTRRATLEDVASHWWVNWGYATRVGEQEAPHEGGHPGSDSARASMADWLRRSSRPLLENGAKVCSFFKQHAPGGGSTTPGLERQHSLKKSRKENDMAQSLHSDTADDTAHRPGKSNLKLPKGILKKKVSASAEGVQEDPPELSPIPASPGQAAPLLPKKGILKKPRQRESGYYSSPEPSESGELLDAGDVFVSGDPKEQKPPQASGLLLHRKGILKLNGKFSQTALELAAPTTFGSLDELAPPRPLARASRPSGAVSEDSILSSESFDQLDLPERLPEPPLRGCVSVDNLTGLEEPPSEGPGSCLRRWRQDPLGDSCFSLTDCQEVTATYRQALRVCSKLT
Particulars: at 10 µM.

Test [7] addresses T3, Inhibitor of nuclear factor kappa-B kinase subunit epsilon (Homo sapiens) (UniProt Q14164).
T3 sequence (whole entry): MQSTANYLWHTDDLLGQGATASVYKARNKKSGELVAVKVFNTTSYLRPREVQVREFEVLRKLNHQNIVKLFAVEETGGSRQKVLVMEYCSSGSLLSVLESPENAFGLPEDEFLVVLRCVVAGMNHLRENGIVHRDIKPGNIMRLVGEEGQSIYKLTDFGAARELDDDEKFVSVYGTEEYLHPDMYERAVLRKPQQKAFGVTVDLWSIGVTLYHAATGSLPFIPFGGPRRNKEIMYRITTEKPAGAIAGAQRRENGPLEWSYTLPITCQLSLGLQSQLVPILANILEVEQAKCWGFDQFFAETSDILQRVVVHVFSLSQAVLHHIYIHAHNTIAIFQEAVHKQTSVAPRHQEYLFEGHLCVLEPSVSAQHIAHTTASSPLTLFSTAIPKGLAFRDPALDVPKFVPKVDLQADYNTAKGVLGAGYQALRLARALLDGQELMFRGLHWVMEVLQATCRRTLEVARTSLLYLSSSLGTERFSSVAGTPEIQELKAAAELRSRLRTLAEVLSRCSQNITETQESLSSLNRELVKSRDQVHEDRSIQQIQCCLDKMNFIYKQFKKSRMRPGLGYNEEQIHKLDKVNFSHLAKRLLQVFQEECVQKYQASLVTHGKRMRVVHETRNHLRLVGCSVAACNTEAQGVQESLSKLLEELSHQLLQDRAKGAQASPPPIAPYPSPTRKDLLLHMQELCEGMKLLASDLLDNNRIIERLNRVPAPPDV
In words: Selectivity interaction (ActivX KiNativ screen (kinase selectivity in THP-1 cell lysates)) EUB0000639a IKBKE. Type of test: subcellular. Particulars: lysate, at 0.04 µM.

Test [8] deals with Mitogen-activated protein kinase 8 (Homo sapiens, UniProt P45983). Briefly: Selectivity interaction (Upstate Kinase Profiler service (Millipore)) EUB0000056c MAPK8. The following applies: at 1 µM.
Chain of Mitogen-activated protein kinase 8 (P45983 whole entry): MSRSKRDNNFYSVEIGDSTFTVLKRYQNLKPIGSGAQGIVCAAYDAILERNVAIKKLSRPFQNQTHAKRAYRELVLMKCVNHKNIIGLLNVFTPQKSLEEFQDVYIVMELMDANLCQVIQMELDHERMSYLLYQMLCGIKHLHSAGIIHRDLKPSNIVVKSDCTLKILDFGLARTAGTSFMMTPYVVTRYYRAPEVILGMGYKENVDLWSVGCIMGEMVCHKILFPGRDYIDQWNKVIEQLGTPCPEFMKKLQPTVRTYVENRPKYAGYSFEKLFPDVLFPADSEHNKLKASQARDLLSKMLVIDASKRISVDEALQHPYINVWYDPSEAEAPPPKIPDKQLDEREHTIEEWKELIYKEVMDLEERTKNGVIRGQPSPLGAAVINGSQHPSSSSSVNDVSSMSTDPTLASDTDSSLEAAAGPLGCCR

Molecules are shown by their SMILES.

Chain of Ribosomal protein S6 kinase alpha-1 (Q15418 whole entry): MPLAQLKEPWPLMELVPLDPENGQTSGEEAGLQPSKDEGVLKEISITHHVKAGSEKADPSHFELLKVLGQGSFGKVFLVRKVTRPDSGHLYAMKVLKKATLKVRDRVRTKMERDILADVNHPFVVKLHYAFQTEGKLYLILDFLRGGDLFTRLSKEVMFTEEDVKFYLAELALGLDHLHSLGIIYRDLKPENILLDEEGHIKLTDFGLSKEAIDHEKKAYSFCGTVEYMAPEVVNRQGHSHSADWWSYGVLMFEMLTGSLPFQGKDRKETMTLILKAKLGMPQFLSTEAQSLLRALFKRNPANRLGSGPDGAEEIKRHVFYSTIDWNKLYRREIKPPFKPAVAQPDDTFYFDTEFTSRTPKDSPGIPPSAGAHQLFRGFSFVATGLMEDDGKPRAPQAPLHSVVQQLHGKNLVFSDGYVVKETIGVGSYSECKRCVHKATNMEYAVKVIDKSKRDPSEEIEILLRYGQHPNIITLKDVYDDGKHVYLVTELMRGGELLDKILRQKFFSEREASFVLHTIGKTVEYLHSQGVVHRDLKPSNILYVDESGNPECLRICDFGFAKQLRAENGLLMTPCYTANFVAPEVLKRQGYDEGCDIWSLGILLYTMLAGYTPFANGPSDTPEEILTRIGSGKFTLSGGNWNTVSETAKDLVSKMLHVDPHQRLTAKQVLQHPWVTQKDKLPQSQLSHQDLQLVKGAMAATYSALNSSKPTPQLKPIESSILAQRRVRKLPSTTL
Chain of MAP kinase-interacting serine/threonine-protein kinase 1 (Homo sapiens) (Q9BUB5 whole entry, looked up): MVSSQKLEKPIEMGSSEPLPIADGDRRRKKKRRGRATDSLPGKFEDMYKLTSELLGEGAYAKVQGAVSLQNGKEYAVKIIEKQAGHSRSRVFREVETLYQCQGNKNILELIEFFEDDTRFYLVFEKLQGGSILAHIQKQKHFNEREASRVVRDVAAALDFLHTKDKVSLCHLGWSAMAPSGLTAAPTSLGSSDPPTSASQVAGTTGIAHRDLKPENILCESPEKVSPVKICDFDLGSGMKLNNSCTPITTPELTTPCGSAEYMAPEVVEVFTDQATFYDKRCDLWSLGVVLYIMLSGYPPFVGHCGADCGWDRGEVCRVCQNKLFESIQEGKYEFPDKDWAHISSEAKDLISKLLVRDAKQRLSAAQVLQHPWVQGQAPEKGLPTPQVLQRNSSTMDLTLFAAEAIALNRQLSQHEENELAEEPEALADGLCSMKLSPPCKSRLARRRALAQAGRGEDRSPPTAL

As to `Cn1cc(-n2cnc3c(NCc4nc5cc(Cl)c(Cl)cc5[nH]4)nc(N4CCOCC4)nc32)cn1`, the results for the % of control in test [1] and in test [2] were 2.99% and -4.28%, respectively.

In the case of `N#Cc1cccc(-c2c[nH]c3ncnc(N4CCOCC4)c23)c1`, the % of control in test [3] came out at 79%. For the same compound, the % of inhibition in test [4] worked out at 13%.

Turning to `Cc1cc(F)c(C(=O)Nc2cccc(-c3nncn3C(C)C)n2)cc1-n1cnc(C2CC2)c1`, the % of control in test [5] worked out at 88%.

Regarding `Cc1cc([C@@H](C)Nc2ccccc2C(=O)O)c2nc(N3CCOCC3)cc(=O)n2c1` [AZD-6482], the % of control in test [6] was found to be 84%.

In the case of `CC[C@@H]1[C@H](F)C(=O)N[C@@H]1COc1nccc2cc(C(N)=O)c(OC)cc12` [ZIMLOVISERTIB], in test [7], the % of inhibition is -22.2%.

With `Cc1ccc(-c2ccc3c(ccc4sc5c(c43)NC[C@@H](C)NC5=O)n2)cn1`, the % of inhibition in test [8] is 10%.
